# US20130121994A1, “TRIAZOLOPYRIDINE DERIVATIVES” (BAYER INTELLECTUAL PROPERTY GMBH, priority 2009, published 2013)
# Molecular target: T1, human kinase Mps-1 (Homo sapiens, UniProt P33981)
# T1 construct: N-terminally GST-tagged human full length recombinant Mps-1 kinase; GST (N); purchased Invitrogen, Karslruhe, Germany PV4071
# T1 sequence (P33981 1-857): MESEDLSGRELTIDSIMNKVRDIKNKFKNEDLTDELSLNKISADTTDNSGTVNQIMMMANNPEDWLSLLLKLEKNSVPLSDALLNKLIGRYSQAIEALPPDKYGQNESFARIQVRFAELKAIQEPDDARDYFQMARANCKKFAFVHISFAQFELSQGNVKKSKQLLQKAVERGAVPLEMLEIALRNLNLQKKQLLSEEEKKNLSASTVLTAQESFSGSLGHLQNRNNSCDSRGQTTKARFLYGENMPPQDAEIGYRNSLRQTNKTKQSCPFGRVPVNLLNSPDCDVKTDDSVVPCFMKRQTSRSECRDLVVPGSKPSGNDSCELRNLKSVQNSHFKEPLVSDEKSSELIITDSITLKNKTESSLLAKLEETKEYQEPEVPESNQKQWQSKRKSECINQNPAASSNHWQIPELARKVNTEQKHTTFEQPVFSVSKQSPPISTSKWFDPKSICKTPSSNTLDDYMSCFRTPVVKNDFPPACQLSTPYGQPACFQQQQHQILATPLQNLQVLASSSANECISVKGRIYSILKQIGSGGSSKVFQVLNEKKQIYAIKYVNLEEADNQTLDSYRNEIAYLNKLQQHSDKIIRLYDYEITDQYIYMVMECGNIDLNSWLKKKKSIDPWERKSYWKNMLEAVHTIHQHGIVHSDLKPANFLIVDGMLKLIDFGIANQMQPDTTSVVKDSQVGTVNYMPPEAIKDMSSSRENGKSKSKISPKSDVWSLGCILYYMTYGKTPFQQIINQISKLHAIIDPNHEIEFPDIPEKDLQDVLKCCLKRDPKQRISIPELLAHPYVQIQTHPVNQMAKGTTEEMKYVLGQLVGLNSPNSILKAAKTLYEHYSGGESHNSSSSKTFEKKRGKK
# Assay: Mps-1 kinase assay (HTRF)
# Type: biochemical
row,IC50,SMILES
1,≤ 1 nM,"CC(C)(C)CNC(=O)c1cccc(-c2ccc3nc(Nc4ccc(C(=O)NCC(C)(C)O)cc4OCC(F)(F)F)nn3c2)c1 [Example 11.095, 4-[(6-{3-[(2,2-dimethylpropyl)carbamoyl]phenyl}[1,2,4]tria-zolo[1,5-a]pyridin-2-yl)amino]-N-(2-hydroxy-2-methylpropyl)-3-(2,2,2-trifluoroethoxy)benzamide]"
2,≤ 1 nM,"CC(C)(O)CNC(=O)c1ccc(Nc2nc3ccc(-c4cccc(C(=O)NCC(F)(F)F)c4)cn3n2)c(OCC(F)(F)F)c1 [Example 11.096, N-(2-hydroxy-2-methylpropyl)-3-(2,2,2-trifluoroethoxy)-4-[(6-{3-[(2,2,2-trifluoroethyl)carbamoyl]phenyl}[1,2,4]triazolo [1,5-a]pyridin-2-yl)amino]benzamide]"
3,97.6 nM,"CNS(=O)(=O)c1cccc(-c2ccc3nc(Nc4cccc(F)c4C#N)nn3c2)c1 [Example 11.098, 3-{2-[(2-cyano-3-fluorophenyl)amino][1,2,4]triazolo[1,5-a]pyridin-6-yl}-N-methylbenzenesulfonamide]"
4,18.9 nM,"CC(C)(C)CC(=O)Nc1ccc(-c2ccc3nc(Nc4ccccc4C#N)nn3c2)cc1 [Example 11.099, N-(4-{2-[(2-cyanophenyl)amino][1,2,4]triazolo[1,5-a]pyridin-6-yl}phenyl)-3,3-dimethylbutanamide]"
5,8.08 nM,"CC(C)(C)CCC(=O)Nc1ccc(-c2ccc3nc(Nc4ccccc4C#N)nn3c2)cc1 [Example 11.100, N-(4-{2-[(2-cyanophenyl)amino][1,2,4]triazolo[1,5-a]pyridin-6-yl}phenyl)-4,4-dimethylpentanamide]"
6,2.53 nM,"COc1cc(C(=O)NC(C)(C)C)ccc1Nc1nc2ccc(-c3ccc(NC(=O)CC(F)(F)F)cc3)cn2n1 [Example 11.101, N-tert-butyl-3-methoxy-4-[(6-{4-[(3,3,3-trifluoropropanoyl)amino]phenyl}[1,2,4]triazolo [1,5-a]pyridin-2-yl)amino]benzamide]"
